The source of these data is patent publication US20190100534A1, “Cephem Compounds with Latent Reactive Groups” (Gladius Pharmaceuticals, Inc., priority 2017, published 2019).

Molecules are shown by their SMILES.

What all share (format): cell-based
Test [1] relates to Pseudomonas aeruginosa PA (RR-2). Kind of test: MIC determination. Particulars: PA (RR-2), CAMH broth, 20 μM Apo-Transferrin, 37° C., 18 hours; for MIC: Pseudomonas aeruginosa, read-out: Minimum Inhibitory Concentrations, PA (RR-2). The method in brief: (§1)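 Broth microdilution in CAMH + 20 μM apo-transferrin; inoculum 0.5 McFarland, used within 30 min. Compound 64→0.125 μg/mL, twofold steps. 37 °C, 18 h. MIC = lowest clear-well concentration.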

Test [2] relates to Pseudomonas aeruginosa PA-RR-(98023895). Kind of test: MIC determination. Particulars: PA-RR-(98023895), CAMH broth, 20 μM Apo-Transferrin, 37° C., 18 hours; for MIC: Pseudomonas aeruginosa, read-out: Minimum Inhibitory Concentrations, PA-RR-(98023895). The method in brief:
as §1

Test [3] deals with Pseudomonas aeruginosa PA (URMC-3). Kind of test: MIC determination. Particulars: PA (URMC-3), CAMH broth, 20 μM Apo-Transferrin, 37° C., 18 hours; for MIC: Pseudomonas aeruginosa, read-out: Minimum Inhibitory Concentrations, PA (URMC-3). The method in brief:
as §1

Test [4] has as its system Pseudomonas aeruginosa PA (URMC-2). Kind of test: MIC determination. Particulars: PA (URMC-2), CAMH broth, 20 μM Apo-Transferrin, 37° C., 18 hours; for MIC: Pseudomonas aeruginosa, read-out: Minimum Inhibitory Concentrations, PA (URMC-2). The method in brief:
as §1

The test system of test [5] is Pseudomonas aeruginosa PA-RR-(G7304100). Kind of test: MIC determination. Particulars: PA-RR-(G7304100), CAMH broth, 20 μM Apo-Transferrin, 37° C., 18 hours; for MIC: Pseudomonas aeruginosa, read-out: Minimum Inhibitory Concentrations, PA-RR-(G7304100). The method in brief:
as §1

Test [6] deals with Pseudomonas aeruginosa PA-RR-(G7305586). In words: MIC determination. Particulars: PA-RR-(G7305586), CAMH broth, 20 μM Apo-Transferrin, 37° C., 18 hours; for MIC: Pseudomonas aeruginosa, read-out: Minimum Inhibitory Concentrations, PA-RR-(G7305586). The essentials:
as §1

For test [7], the system named is Pseudomonas aeruginosa PA-RR-(G7294437). In words: MIC determination. Particulars: PA-RR-(G7294437), CAMH broth, 20 μM Apo-Transferrin, 37° C., 18 hours; for MIC: Pseudomonas aeruginosa, read-out: Minimum Inhibitory Concentrations, PA-RR-(G7294437). The method in brief:
as §1

Test [8] deals with Pseudomonas aeruginosa PA-RR-(purple Fre D). In words: MIC determination. Particulars: CAMH broth, 20 μM Apo-Transferrin, 37° C., 18 hours; for MIC: Pseudomonas aeruginosa, read-out: Minimum Inhibitory Concentrations, PA-RR-(purple Fre D). The method in brief: as §1
The subject of test [9] is Isogenic E. coli J58 strain carrying CTX-M-15. In words: MIC determination, isogenic E. coli strains. Particulars: for MIC: Escherichia coli, 18 h, read-out: Mimimum Inhibitory Concentrations, CTX-M-15. The method in brief: (§2)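 Isogenic E. coli J53 carrying plasmid-encoded CTX-M-14 or CTX-M-15 (ampicillin-selected), standardized to 0.08-0.1 OD600, incubated overnight (18 h, 37° C.) in CAMH broth plus 20 μM apo-transferrin over 2-fold compound dilutions starting at 64 μg/mL. Lowest concentration with no visible growth recorded as MIC.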

For test [10], the system named is Isogenic E. coli J58 strain carrying CTX-M-14. In words: MIC determination, isogenic E. coli strains. Particulars: for MIC: Escherichia coli, 18 h, read-out: Mimimum Inhibitory Concentrations, CTX-M-14. The method in brief:
as §2

For test [11], the system named is Isogenic E. coli J58 strain carrying KPC-2. In words: MIC determination, isogenic E. coli strains. Particulars: for MIC: Escherichia coli, 18 h, read-out: Mimimum Inhibitory Concentrations, KPC-2. The essentials:
(§3)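 Strain: E. coli J53 electroporated with a pBC-SK(+) plasmid encoding the KPC enzyme, selected on ampicillin. Twofold dilutions ([…]) were made in CAMH broth containing 20 μM apo-transferrin and inoculated at 0.5 McFarland. After overnight (18 h) growth at 37 °C, MIC was read as the lowest concentration with no visible growth.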

Test [12] relates to Isogenic E. coli J58 strain carrying KPC-3. In words: MIC determination, isogenic E. coli strains. Particulars: for MIC: Escherichia coli, 18 h, read-out: Mimimum Inhibitory Concentrations, KPC-3. The essentials: as §3
The subject of test [13] is Isogenic E. coli J58 strain carrying TEM-26. In words: MIC determination, isogenic E. coli strains. Particulars: for MIC: Escherichia coli, 18 h, read-out: Mimimum Inhibitory Concentrations, TEM-26. The essentials: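 E. coli J53 carried a pBC-SK(+) plasmid expressing TEM-26 β-lactamase. Compounds were serially halved from […] in CAMH broth containing 20 μM apo-transferrin, inoculated from a 0.5 McFarland culture and held overnight (18 h, 37° C); MIC read as the lowest concentration without visible growth.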

Test [14] has as its system Isogenic E. coli J58 strain carrying VIM-2. In words: MIC determination, isogenic E. coli strains. Particulars: for MIC: Escherichia coli, 18 h, read-out: Mimimum Inhibitory Concentrations, VIM-2. The essentials:
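Broth microdilution in cation-adjusted Mueller-Hinton with 20 μM apo-transferrin, compound serially halved from 64 μg/mL, read by eye after 18 h at 37 °C as lowest clear well. Inoculum: VIM-2-expressing E. coli J53 (pBC-SK(+) plasmid), adjusted to 0.5 McFarland.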

For test [15], the system named is Isogenic E. coli J58 strain carrying NDM-1. Kind of test: MIC determination, isogenic E. coli strains. Particulars: for MIC: Escherichia coli, 18 h, read-out: Mimimum Inhibitory Concentrations, NDM-1. The method in brief:
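Broth microdilution was run in cation-adjusted Mueller-Hinton broth supplemented with 20 μM apo-transferrin, using a 64 μg/mL top concentration diluted twofold. The inoculum was NDM-1-expressing E. coli J53 (pBC-SK(+) plasmid) at 0.5 McFarland. After overnight incubation (18 h, 37° C), the lowest compound concentration preventing visible growth was recorded as the MIC.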

In a further test the test system is E. coli J53 Alone. Kind of test: MIC determination, isogenic E. coli strains. Particulars: for MIC: Escherichia coli, J53ALONE, 18 h, read-out: Mimimum Inhibitory Concentrations, J53 Alone; for Mimimum Inhibitory Concentrations, J53 Alone: CAMH broth, 20 μM Apo-Transferrin, 37° C., 18 hours. The essentials:
(§4)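 MIC read as the lowest compound level giving a transparent well after 18 h at 37° C. Strains: parent E. coli J53 and isogenic transformants expressing plasmid-borne (pBC-SK(+)) beta-lactamases such as DHA-1; inoculum 0.5 McFarland; CAMH broth plus 20 μM apo-transferrin; compound 64 μg/mL downward, 2-fold dilutions.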

In test [16] the test system is Isogenic E. coli J58 strain carrying DHA-1. Kind of test: MIC determination, isogenic E. coli strains. Particulars: for MIC: Escherichia coli, 18 h, read-out: Mimimum Inhibitory Concentrations, DHA-1. The method in brief:
as §4

`CC(C)(O/N=C(\C(=O)N[C@@H]1C(=O)N2C(C(=O)O)=C(C=Cc3ccc(C[N+](C)(C)Cc4ccc(O)c(O)c4Cl)cc3)CS[C@H]12)c1csc(N)n1)C(=O)O` (mixture of isomers) [Compound 434, N-(4-((E/Z)-2-((6R,7R)-7-((Z)-2-(2-aminothiazol-4-yl)-2-(((2-carboxypropan-2-yl)oxy)imino)acetamido)-2-carboxy-8-oxo-5-thia-1-azabicyclo[4.2.0]oct-2-en-3-yl)vinyl)benzyl)-1-(2-chloro-3,4-dihydroxyphenyl)-N,N-dimethylmethanaminium]: the MIC worked out at 2 µg/mL in test [1]; 8 µg/mL in [2]; 16 µg/mL in test [3]; 8 µg/mL in [4]; 2 µg/mL in test [5]; 8 µg/mL in test [6]. In addition, the MIC in test [7] was 0.5 µg/mL; in [8] it was 2 µg/mL; in test [9], 0.5 µg/mL; in test [10], 2 µg/mL; in [11], 16 µg/mL; in [12] it was 64 µg/mL. Besides, the MIC in test [13] was 2 µg/mL; in test [14], 2 µg/mL; in test [15], over 64 µg/mL; in the test on E. coli J53 Alone, 0.25 µg/mL; in test [16], 1 µg/mL. Also, in the test with E. coli J53 Alone (Table 4-2), the “Mimimum Inhibitory Concentrations, J53 Alone” value came out at 0.25 microgram/mL.
For the molecule `CC(C)(O/N=C(\C(=O)N[C@@H]1C(=O)N2C(C(=O)O)=C(C=Cc3ccc(C[n+]4ccc5cc(O)c(O)cc5c4)cc3)CS[C@H]12)c1csc(N)n1)C(=O)O` (mixture of isomers) [Compound 435, 2-(4-((E/Z)-2-((6R,7R)-7-((Z)-2-(2-aminothiazol-4-yl)-2-(((2-carboxypropan-2-yl)oxy)imino)acetamido)-2-carboxy-8-oxo-5-thia-1-azabicyclo[4.2.0]oct-2-en-3-yl)vinyl)benzyl)-6,7-dihydroxyisoquinolin-2-ium], the “Minimum Inhibitory Concentrations, PA (RR-2)” value in [1] is listed as at most 0.06 microgram/mL. Moreover, the “Minimum Inhibitory Concentrations, PA-RR-(98023895)” value in test [2] turned out to be 1 microgram/mL. Further, the “Minimum Inhibitory Concentrations, PA (URMC-3)” value in [3] is at most 0.06 microgram/mL. The “Minimum Inhibitory Concentrations, PA (URMC-2)” value in [4] is reported as 0.25 microgram/mL. The “Minimum Inhibitory Concentrations, PA-RR-(G7304100)” value in [5] is at most 0.06 microgram/mL. Further, the “Minimum Inhibitory Concentrations, PA-RR-(G7305586)” value in [6] is 0.25 microgram/mL. Further, the “Minimum Inhibitory Concentrations, PA-RR-(G7294437)” value in test [7] was at most 0.06 microgram/mL. Also, the “Minimum Inhibitory Concentrations, PA-RR-(purple Fre D)” value in test [8] is 0.5 microgram/mL. Also, the “Mimimum Inhibitory Concentrations, CTX-M-15” value in test [9] (isogenic E. coli strain, CTX-M-15, CAMH broth, 20 μM Apo-Transferrin, 37° C., 18 hours) is at most 0.06 microgram/mL. Also, the “Mimimum Inhibitory Concentrations, CTX-M-14” value in test [10] (isogenic E. coli strain, CTX-M-14, CAMH broth, 20 μM Apo-Transferrin, 37° C., 18 hours) is given as at most 0.06 microgram/mL. The “Mimimum Inhibitory Concentrations, KPC-2” value in [11] (isogenic E. coli strain, KPC-2, CAMH broth, 20 μM Apo-Transferrin, 37° C., 18 hours) came to 0.25 microgram/mL. The “Mimimum Inhibitory Concentrations, KPC-3” value in test [12] (isogenic E. coli strain, KPC-3, CAMH broth, 20 μM Apo-Transferrin, 37° C., 18 hours) worked out at 0.13 microgram/mL. The “Mimimum Inhibitory Concentrations, TEM-26” value in [13] (isogenic E. coli strain, TEM-26, CAMH broth, 20 μM Apo-Transferrin, 37° C., 18 hours) is recorded as at most 0.06 microgram/mL. Moreover, in [14] (isogenic E. coli strain, VIM-2, CAMH broth, 20 μM Apo-Transferrin, 37° C., 18 hours), the “Mimimum Inhibitory Concentrations, VIM-2” value was at most 0.06 microgram/mL. Moreover, in [14] (review of Tables 4-1 and 4-2), the “MICs for an E. coli strain carrying the gene for carbapenemase VIM-1, in words” value is given as “low microgram/mL MICs”. Besides, the “Mimimum Inhibitory Concentrations, NDM-1” value in [15] (isogenic E. coli strain, NDM-1, CAMH broth, 20 μM Apo-Transferrin, 37° C., 18 hours) was 2 microgram/mL. In addition, the “MICs for an E. coli strain carrying the gene for NDM-1, in words” value in test [15] (review of Tables 4-1 and 4-2) is “lower MICS compared to other compounds tested”. Besides, the “Mimimum Inhibitory Concentrations, J53 Alone” value with E. coli J53 Alone (Table 4-1) and in the test on E. coli J53 Alone (Table 4-2) was at most 0.06 microgram/mL each time. For the same molecule, the “Mimimum Inhibitory Concentrations, DHA-1” value in test [16] (isogenic E. coli strain, DHA-1, CAMH broth, 20 μM Apo-Transferrin, 37° C., 18 hours) is reported as at most 0.06 microgram/mL.
In the case of `CC(C)(O/N=C(\C(=O)N[C@@H]1C(=O)N2C(C(=O)O)=C(C=Cc3ccc(C[N+]4(C)Cc5cc(O)c(O)cc5C4)cc3)CS[C@H]12)c1csc(N)n1)C(=O)O` (mixture of isomers) [Compound 424, 2-(4-((E/Z)-2-((6R,7R)-7-((Z)-2-(2-aminothiazol-4-yl)-2-(((2-carboxypropan-2-yl)oxy)imino)acetamido)-2-carboxy-8-oxo-5-thia-1-azabicyclo[4.2.0]oct-2-en-3-yl)vinyl)benzyl)-5,6-dihydroxy-2-methylisoindolin-2-ium], the MIC in [1] was 4 µg/mL; in [2], 8 µg/mL; in test [3], 0.13 µg/mL; in test [4], 4 µg/mL; in test [5] it was at most 0.06 µg/mL; in [6] it was 8 µg/mL. In addition, the MIC in [7] worked out at 0.25 µg/mL; in test [8] it was 2 µg/mL; in test [9], 2 µg/mL; in test [10] it was 1 µg/mL; in test [11] it was 32 µg/mL; in test [12], 8 µg/mL. Also, the MIC in [13] was 4 µg/mL; in test [14] it was 2 µg/mL; in test [15], over 64 µg/mL; in the test on E. coli J53 Alone it was 0.25 µg/mL; in test [16], 0.5 µg/mL. For the same molecule, the “Mimimum Inhibitory Concentrations, J53 Alone” value in the test with E. coli J53 Alone (Table 4-2) came to 0.25 microgram/mL.
